Assay results published in US7622476B2, “Methods of using 1-allyl ergot alkaloid derivatives to treat migraines” (priority 2002, dated 2009).
Like-named read-outs stand apart in the source and are kept apart here. Marks after values point to notes of the source that are not given here.

Tests used:
[1] = system: 5-HT2B receptors; test: Function test based on 5-HT2B receptor tissue (pig pulmonary artery, 5-HT-induced relaxation); assay type: cell-based; conditions: for 5-HT2B pA2 value: antagonism of 5-HT-induced relaxation, antagonist conc. (nM)
Description: The test was an in vitro function test to characterize 5-HT2B receptors in a pig's pulmonary artery. The pig's pulmonary artery was prepared as follows: Small branches were dissected from the pulmonary artery and cautiously freed of organ tissue and connective tissue. Up to six rings of the artery (length 2-3 mm and width 1.5-2 mm) were hung in horizontal orientation between two L-shaped platinum hooks (150 μm in diameter) and fixed in an organ bath containing 10 ml of modified Krebs-Henseleit buffer composed as follows: 118 mM NaCl, 4.7 mM KCl, 2.5 mM CaCl2, 1.2 mM MgSO4, 1.2 mM KH2PO4, 25 mM NaHCO3, and 11 mM D-glucose. A continuous flow of a gas mixture of 95% O2 and 5% CO2 passed through the solution which was kept at a constant temperature of 35° C. The preparations were connected to an isometric power converter (Hugo Sachs Elektronik, March, Germany), and voltage changes were continuously recorded. The constant voltage in stationary condition was adjusted to 20 mN at the beginning of each experiment. During an initial stabilization period of 60 minutes, the bath medium was replaced every 20 minutes and the voltage was repeatedly adjusted to 20 mN. The artery preparations were stimulated at 45-minute intervals once with KCl (30 mM) and three times with prostaglandin-F2α (PGF2α, 3 μM) until the response by contraction was visible. The undamaged condition of the endothelium was evaluated functionally by measuring the extent of endothelium-dependent relaxation following application of bradykinin (10 nM). After the third PGF2α-induced contraction had stabilized, the relaxation response was examined for 5-HT by determining a cumulative concentration-response curve in the absence and presence of the antagonist. […].
The relaxation response to the test compound was examined using the same method as with 5-HT to test for agonistic activity. The concentration of the agonist was increased in increments at the time when the response signal had reached a plateau. The plateau was typically reached within 2 to 4 minutes. The relaxation effects were expressed as a percentage of the PGF2α-induced contraction. The antagonists were added 30 minutes before the recording of the agonist concentration response curves started. The effects of the antagonists were examined in ring segments that were adjacent to the reference segments.

[2] = target: T1, 5-HT2A receptors (Rattus norvegicus, UniProt P14842); test: Function test based on 5-HT2A receptor tissue (rat caudal artery, 5-HT concentration-response curves); assay type: cell-based; conditions: for 5-HT2A pA2 value: rat caudal artery without endothelium, antagonism of 5-HT, antagonist conc. (nM)
T1 construct: characterizing 5-HT2A receptors in rat's caudal arteries; from tissue; host or cells: rat anterior caudal artery segments, endothelium stripped (male Wistar rats)
T1 sequence (P14842 whole entry): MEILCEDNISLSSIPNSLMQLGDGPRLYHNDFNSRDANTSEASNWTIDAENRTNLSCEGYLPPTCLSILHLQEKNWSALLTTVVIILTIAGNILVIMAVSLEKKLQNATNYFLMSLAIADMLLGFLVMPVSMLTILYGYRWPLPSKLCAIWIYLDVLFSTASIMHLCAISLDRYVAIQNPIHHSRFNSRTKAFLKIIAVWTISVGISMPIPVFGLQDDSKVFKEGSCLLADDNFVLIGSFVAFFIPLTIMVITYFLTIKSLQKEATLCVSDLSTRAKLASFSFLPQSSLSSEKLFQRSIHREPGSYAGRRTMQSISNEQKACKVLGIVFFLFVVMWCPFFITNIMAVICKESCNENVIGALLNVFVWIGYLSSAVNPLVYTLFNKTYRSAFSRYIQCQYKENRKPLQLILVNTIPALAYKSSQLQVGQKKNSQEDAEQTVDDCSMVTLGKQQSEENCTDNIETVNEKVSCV
Source text: The example below describes an in-vitro function test for characterizing 5-HT2A receptors in rat's caudal arteries.
Male Wistar rats (250-300 g) were killed by suffocation. The anterior caudal artery was dissected fast and cleared of attached connective tissue. A stainless steel wire (0.3 mm in diameter) was introduced into the artery to strip off the endothelium. […] A continuous flow of a gas mixture of 95% O2 and 5% CO2 passed through the solution which was kept at a constant temperature of 37° C. […] The constant voltage was adjusted to 5 mN at the beginning of each experiment. During an equilibrium period of 120 minutes, the preparations were stimulated once after 60 minutes with 5-HT (1 μM).
Three cumulative concentration-response curves (CRC) were determined for each artery segment in these experiments for the study of partial agonists. The first CRC was obtained for 5-HT, the second that followed 60 minutes later for the partial agonist. Finally, the third CRC was obtained 10-15 minutes after the second CRC without washing with 5-HT and using the highest agonist concentration (0.3-3 μM). Additional experiments determined two CRCs at an interval of 60 minutes as described above. The first CRC was determined for 5-HT. The second CRC was determined to test the partial agonist in the presence of ketanserin. The preparations were incubated for 30 minutes with a ketanserin solution (3 nM).
The axial shift to the right of the curves determined in the presence of ketanserin was compared to the shift determined for the respective control preparation in the absence of ketanserin. In these experiments using ketanserin, two separate CRCs to 5-HT were obtained from each artery segment at a 90-minute interval. For the antagonists, the preparations were incubated 60 minutes prior to determining the second curve. Prazosin (0.1 μM) and cocaine (6 μM) were present in the solution during these experiments to block the α1-adrenoceptors and neuronal absorption of 5-HT.

[3] = target: T1, 5-HT2A receptors; conditions: reference compounds marked *; values from H. Pertz (1996) Planta Med. 62, pp. 387-392; cited from earlier work

In the case of C=CCn1cc2c3c(cccc31)[C@H]1C[C@@H](C(=O)N[C@]3(C)O[C@@]4(O)C5CCCN5C(=O)[C@H](Cc5ccccc5)N4C3=O)CN(C)[C@@H]1C2 (stereo partly shown) [1-Allyl dihydroergotamine], the “5-HT2B pA2 value” [1] is reported as 9.30.
With C=CCn1cc2c3c(cccc31)C1=C[C@@H](C(=O)N[C@]3(C)O[C@@]4(O)C5CCCN5C(=O)[C@H](Cc5ccccc5)N4C3=O)CN(C)[C@@H]1C2 (stereo partly shown) [1-Allyl ergotamine] the “5-HT2B -logKp, calculated according to Kenakin” value ([1]; printed in the pA2 column, marked **) was 9.11**.
With C=CCn1cc2c3c(cccc31)[C@H]1C[C@@H](C)CN(C)[C@@H]1C2 [1-Allyl festuclavine] the “5-HT2A pA2 value” [2] was 7.89 and the “5-HT2B pA2 value” [1] was 6.74.
With C=CCn1cc2c3c(cccc31)C1=CC(NC(=O)N(CC)CC)CN(C)C1C2 (stereo not shown) [1-Allyl lisuride] the “5-HT2B pA2 value” [1] was 8.17.
In the case of C=CCn1cc2c3c(cccc31)[C@@H]1C[C@H](NC(=O)N(CC)CC)CN(C)[C@H]1C2 [1-Allyl terguride, 1-allyl-(5R,8S,10R)-terguride], the Kb [2] is reported as 2 nM and the “5-HT2B pA2 value” [1] is reported as 7.67.
In the case of C=CCn1cc2c3c(cccc31)C1=C[C@@H](CO)CN(C)[C@@H]1C2 [1-Allyl-lysergol, 1-Allyl lysergol], the Kb [2] is reported as 3.55 nM and the “5-HT2B pA2 value” [1] is reported as 7.61.
For CCN(CC)C(=O)N[C@H]1C=C2c3cccc4[nH]cc(c34)C[C@H]2N(C)C1 [Lisuride, reference compound], the “5-HT2B pA2 value” [1] was 10.32.
For CN1C[C@H](CO)C=C2c3cccc4[nH]cc(c34)C[C@H]21 [Lysergol], the “5-HT2A pA2 value” [3] is listed as 6.88.
With CCN(CC)C(=O)N[C@H]1C[C@@H]2c3cccc4[nH]cc(c34)C[C@H]2N(C)C1 [Terguride, reference compound] the “5-HT2A pA2 value” [2] was 8.38 and the “5-HT2B pA2 value” [1] was 8.49.
